Values of other authors as cited in patent publication US20220395549A1, “COMPOSITIONS OF THE OLEA EUROPAEA V. SYLVESTRIS WITH ANTIMICROBIAL EFFICACY” (TAPROGGE GMBH, priority 2019, published 2022).

Test system: test microorganisms
Conditions: cited from earlier work

Q: For COc1cc(C(=O)O)cc(OC)c1O [syringic acid], which “antimicrobial activities of phenolic compounds” value is on record?
A: The value was “ineffective”.
